According to publication PMC7158045 (BMC Plant Biology, 2020):
Structures can show the parent of a compound that is named as a salt.

How the values were obtained:
Test in all cases: biochemical
ZmDRIK1-R187-P492 = target: T1, ZmDRIK1-R187-P492 (Zea mays, UniProt C0P4K9); settings: read-out: dTm B, DSF, Boltzmann fit, 0.1% DMSO
T1 construct: kinase domain, R187-P492
T1 sequence (C0P4K9 1-514): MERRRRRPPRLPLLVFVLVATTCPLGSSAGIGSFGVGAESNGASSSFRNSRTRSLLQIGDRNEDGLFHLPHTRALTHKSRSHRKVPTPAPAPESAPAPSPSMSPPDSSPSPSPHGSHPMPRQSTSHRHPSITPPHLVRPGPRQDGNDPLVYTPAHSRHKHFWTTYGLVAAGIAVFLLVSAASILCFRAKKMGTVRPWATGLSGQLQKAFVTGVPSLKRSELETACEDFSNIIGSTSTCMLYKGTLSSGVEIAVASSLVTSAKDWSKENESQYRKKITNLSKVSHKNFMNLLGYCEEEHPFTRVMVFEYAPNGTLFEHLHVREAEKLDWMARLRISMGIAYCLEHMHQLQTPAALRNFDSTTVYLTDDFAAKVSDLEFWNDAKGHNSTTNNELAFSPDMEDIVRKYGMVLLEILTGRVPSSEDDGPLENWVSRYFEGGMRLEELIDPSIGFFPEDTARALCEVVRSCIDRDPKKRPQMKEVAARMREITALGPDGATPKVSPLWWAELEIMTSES

ZmDRIK1-K217-S514 = target: T2, ZmDRIK1-K217-S514 (Zea mays, UniProt C0P4K9); settings: read-out: dTm B, sheet ZmDRIK1-K217-S514;; DSF, Boltzmann fit, 0.1% DMSO
T2 construct: kinase domain, K217-S514
T2 sequence (C0P4K9 1-514): T1 sequence (C0P4K9 1-514)

[1] = target: T3, ZmDRIK1 (DROUGHT RESPONSIVE INACTIVE KINASE 1), kinase domain (Zea mays, UniProt C0P4K9); settings: read-out: dTm B, sheet ZmDRIK1-R187-S514;; DSF, Boltzmann fit, 0.1% DMSO
T3 construct: gene ZEAMMB73_Zm00001d028770; ZmDRIK1-KD R187-S514 (kinase domain)
T3 sequence (C0P4K9 187-514): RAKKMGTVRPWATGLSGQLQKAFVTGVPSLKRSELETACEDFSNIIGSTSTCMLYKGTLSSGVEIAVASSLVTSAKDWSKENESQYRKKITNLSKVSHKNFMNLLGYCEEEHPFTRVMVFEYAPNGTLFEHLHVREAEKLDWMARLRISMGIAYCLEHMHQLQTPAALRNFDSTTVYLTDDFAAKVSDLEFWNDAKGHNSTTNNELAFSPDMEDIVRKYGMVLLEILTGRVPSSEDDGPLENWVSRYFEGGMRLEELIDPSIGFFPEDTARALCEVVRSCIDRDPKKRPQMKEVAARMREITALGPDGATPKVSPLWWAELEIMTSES

ZmDRIK1-K217-P492 = target: T4, ZmDRIK1-K217-P492 (Zea mays, UniProt C0P4K9); settings: read-out: dTm B, sheet ZmDRIK1-K217-P492;; DSF, Boltzmann fit, 0.1% DMSO
T4 construct: kinase domain, K217-P492
T4 sequence (C0P4K9 1-514): T1 sequence (C0P4K9 1-514)

| ΔTm at 10 µM (ZmDRIK1-R187-P492) [°C] | ΔTm at 10 µM (ZmDRIK1-K217-S514) [°C] | ΔTm at 10 µM [1] [°C] | ΔTm at 10 µM (ZmDRIK1-K217-P492) [°C] | Compound |
| --- | --- | --- | --- | --- |
| -0.49 | -0.341 | -1.14 | -1.21 | CN1CCCN(C(=O)c2cccc(-c3ccc(/C=C4/C(=O)Nc5ccc(Cl)cc54)o3)c2)CC1 [CX-6258 HCl] |
| 0.313 | -0.183 | -1.14 | -0.775 | Cc1nc(N)sc1-c1ccnc(Nc2ccc(N3CCOCC3)cc2)n1 [CYC116] |
| -0.227 | -0.388 | -0.664 | -0.574 | N#CCNC(=O)c1ccc(-c2ccnc(Nc3ccc(N4CCOCC4)cc3)n2)cc1 [CYT387] |
| -0.444 | -0.339 | -0.757 | -1.04 | CC(C)(C)NS(=O)(=O)c1cncc(-c2cc(F)c3nc(N)nn3c2)c1 [CZC24832] |
| -0.191 | -0.229 | -0.769 | -1.09 | COc1cc2c(Oc3ccc4[nH]c(C)cc4c3F)ncnc2cc1OCCCN1CCCC1 [Cediranib (AZD2171)] |
| -0.205 | -0.229 | -0.414 | -1.17 | Cc1cc(O)c2c(c1)C(=O)c1cccc(O)c1C2=O [Chrysophanic Acid] |
| -0.209 | -0.0308 | -0.526 | -0.453 | CC1(COc2ccc3c(c2)ncn3-c2ccc3cccc(N4CCC(N)CC4)c3n2)COC1 [Crenolanib (CP-868596)] |
| -0.261 | -0.422 | -1.41 | -1.25 | CNC(=O)c1cc(Oc2ccc(NC(=O)Nc3cc(C(C)(C)C)nn3-c3ccc4ncccc4c3)c(F)c2)ccn1 [DCC-2036 (Rebastinib)] |
| -0.258 | -0.1 | -0.735 | -0.0919 | COc1cc2ncnc(Nc3ccc(F)c(Cl)c3)c2cc1NC(=O)/C=C/CN1CCCCC1 [Dacomitinib (PF299804)] |
| -0.184 | -0.209 | -0.644 | -0.905 | CO[C@@H](C(=O)N1Cc2[nH]nc(NC(=O)c3ccc(N4CCN(C)CC4)cc3)c2C1)c1ccccc1 [Danusertib (PHA-739358)] |
| -0.493 | -0.388 | -0.74 | -1.24 | Cc1nc(Nc2ncc(C(=O)Nc3c(C)cccc3Cl)s2)cc(N2CCN(CCO)CC2)n1 [Dasatinib] |
| -3.03 | -3.28 | -5.72 | -5.21 | CCC[C@H](NC(=O)/C(C#N)=C/c1cccc(Br)n1)c1ccccc1 [Degrasyn (WP1130)] |
| -0.298 | -0.387 | -0.648 | -0.4 | O=c1cc(CN2CCOCC2)occ1OCCCCCSc1ccnc2cc(C(F)(F)F)ccc12 [EHT 1864] |
| -0.204 | -0.29 | -0.693 | -1.16 | CCn1c2ccccc2c2cc(Nc3ccnc(NCCCN4CCOCC4)n3)ccc21 [EHop-016] |
| -0.423 | -0.552 | -0.702 | -1.05 | CC(C)(C#N)c1ccc(N2C(=O)OCc3cnc4ccc(-c5cnc6ccccc6c5)cc4c32)cc1 [ETP-46464] |
| -0.261 | -0.275 | -0.678 | -1.33 | Cn1cc(C2=C(c3cn(C4CCN(Cc5ccccn5)CC4)c4ccccc34)C(=O)NC2=O)c2ccccc21 [Enzastaurin (LY317615)] |
| -0.278 | -0.264 | -0.54 | -1.09 | C#Cc1cccc(Nc2ncnc3cc(OCCOC)c(OCCOC)cc23)c1 [Erlotinib HCl (OSI-744)] |
| -0.526 | -0.327 | -0.644 | -1.22 | CO[C@H]1C[C@@H]2CC[C@@H](C)[C@@](O)(O2)C(=O)C(=O)N2CCCC[C@H]2C(=O)O[C@H]([C@H](C)C[C@@H]2CC[C@@H](OCCO)[C@H](OC)C2)CC(=O)[C@H](C)/C=C(\C)[C@@H](O)[C@@H](OC)C(=O)[C@H](C)C[C@H](C)/C=C/C=C/C=C/1C [Everolimus (RAD001)] |

| ΔTm at 10 µM (ZmDRIK1-R187-P492) [°C] | ΔTm at 10 µM (ZmDRIK1-K217-S514) [°C] | ΔTm at 10 µM [1] [°C] | ΔTm at 10 µM (ZmDRIK1-K217-P492) [°C] | Compound |
| --- | --- | --- | --- | --- |
| -0.0771 | -0.253 | -0.908 | -0.949 | O=S(=O)(c1cccc2cnccc12)N1CCCNCC1 [Fasudil (HA-1077) HCl] |
| -0.607 | -0.594 | -0.878 | -1.16 | O=C(Nc1nc2cccc(-c3ccc(CN4CCS(=O)(=O)CC4)cc3)n2n1)C1CC1 [Filgotinib (GLPG0634)] |
| -0.447 | -0.608 | -0.542 | -1.47 | CCCCCCCCc1ccc(CCC(N)(CO)CO)cc1 [Fingolimod (FTY720) HCl] |
| -0.272 | -0.391 | -0.837 | -1.16 | CN1CC[C@H](c2c(O)cc(O)c3c(=O)cc(-c4ccccc4Cl)oc23)[C@H](O)C1 [Flavopiridol HCl] |
| -0.222 | -0.314 | -0.579 | -0.792 | COc1cc(Nc2ncc(F)c(Nc3ccc4c(n3)N(COP(=O)(O)O)C(=O)C(C)(C)O4)n2)cc(OC)c1OC [Fostamatinib (R788)] |
| -0.352 | -0.251 | -0.503 | -1.1 | CC(C)NC[C@@H](C(=O)N1CCN(c2ncnc3c2[C@H](C)C[C@H]3O)CC1)c1ccc(Cl)cc1 [GDC-0068] |
| -0.218 | -0.392 | -0.899 | -0.749 | CCNC(=O)Nc1ccc(-c2nc3c(c(N4CCOC[C@@H]4C)n2)CCN(C2COC2)C3)cc1 [GDC-0349] |
| -0.0449 | -0.397 | -0.639 | -1.04 | OCCn1cc(-c2ccc3c(c2)CC/C3=N\O)c(-c2ccncc2)n1 [GDC-0879] |
| -0.181 | -0.203 | -0.702 | -0.665 | CS(=O)(=O)N1CCN(Cc2cc3nc(-c4cccc5[nH]ncc45)nc(N4CCOCC4)c3s2)CC1 [GDC-0941] |
| -0.177 | -0.304 | -0.737 | -1.16 | Cc1c(CN2CCN(C(=O)[C@H](C)O)CC2)sc2c(N3CCOCC3)nc(-c3cnc(N)nc3)nc12 [GDC-0980 (RG7422)] |
| -0.337 | -0.324 | -0.748 | -1.16 | CN(C)CCCn1cc(C2=C(c3c[nH]c4ccccc34)C(=O)NC2=O)c2ccccc21 [GF109203X] |
| -0.575 | -0.602 | -0.833 | -0.848 | CNc1nc(Nc2cn(C(C)(C)C#N)nc2C)ncc1C(F)(F)F [GNE-0877] |
| -0.506 | -0.456 | -0.927 | -0.898 | CCNc1nc(Nc2cc(F)c(C(=O)N3CCOCC3)cc2OC)ncc1C(F)(F)F [GNE-7915] |
| -0.334 | -0.718 | -0.953 | -0.685 | CNc1nc(Nc2cnn([C@H]3CCN(C4COC4)C[C@@H]3F)c2Cl)ncc1C(F)(F)F [GNE-9605] |
| -7.74 | -4.34 | -0.138 | -9.47 | NC(=O)c1cccc(-c2cc(Nc3ccc(OC(F)(F)F)cc3)ncn2)c1 [GNF-2] |
| 1.16 | 0.543 | -0.0553 | -0.507 | O=C(NCCO)c1cccc(-c2cc(Nc3ccc(OC(F)(F)F)cc3)ncn2)c1 [GNF-5] |
| -0.447 | -0.373 | -0.758 | -1.02 | CC1=C(C(=O)Nc2cc3cn[nH]c3cc2F)C(c2ccc(C(F)(F)F)cc2)CC(=O)N1 (stereo not drawn) [GSK429286A] |
| -0.19 | -0.15 | -1.05 | -0.796 | C[C@@H](Oc1cc(-n2cnc3ccc(CN4CCN(C)CC4)cc32)sc1C(N)=O)c1ccccc1C(F)(F)F [GSK461364] |
